This experiment has as its target Ubiquitin-conjugating enzyme E2 E1 (Homo sapiens, UniProt P51965). Briefly: HTRF Assay : The UAE enzymatic reaction totals 50 μL and contains 50 mmol HEPES (pH 7.5), 0.05% BSA, 2.5 mM MgCl2, 0.1 uM ATP, 8 nM GST-Ubc-2, 35 nM flag-ubiquitin, 1 nM recombinant human UAE or mouse UAE. Compounds for this hUAE 1050 assay are tested at 10 point 3-fold dilution. The top concentration for this assay is 1 μM. Each compound is ordered in duplicate on the same plate.

Molecules are shown by their SMILES.

Chain of Ubiquitin-conjugating enzyme E2 E1 (P51965 whole entry): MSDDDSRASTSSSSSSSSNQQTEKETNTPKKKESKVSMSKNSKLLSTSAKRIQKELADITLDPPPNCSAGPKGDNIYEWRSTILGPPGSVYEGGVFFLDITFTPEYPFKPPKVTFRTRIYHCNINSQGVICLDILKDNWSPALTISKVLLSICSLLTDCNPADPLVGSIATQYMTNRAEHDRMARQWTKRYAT

As for `NS(=O)(=O)OC[C@H]1C[C@@H](Nc2ccnc3cc(-c4cccc5ccccc45)nn23)[C@H](O)[C@@H]1O` (racemic), the IC50 was under 10 nM.

The values are drawn from ChEMBL document CHEMBL5726263, “Pyrazolopyrimidinyl inhibitors of ubiquitin-activating enzyme” (2017).
